“And” between values parts separate entries of the source, which are not always exact repeats. Equal values may be shown once. Inconclusive results and toxic doses are left out.
Tested on: L1210 leukemia ip in BDF1 mice, survival T/C
Experiment: NCI In Vivo Anticancer Drug Screen. Data for tumor model L1210 Leukemia (intraperitoneal) in B6D2F1 (BDF1) mice
Details: endpoint: mean survival time, higher = longer survival
How it was run: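 Read-out is survival time, reported as the treated-group measurement over the vehicle-control measurement.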

[1] = dose: 100.0 mg/kg/injection, schedule: Q04DX002 (ip), vehicle: Klucel (hydroxypropylcellulose) (HPC)
[2] = dose: 200.0 mg/kg/injection, schedule: Q04DX002 (ip), vehicle: Klucel (hydroxypropylcellulose) (HPC)
[3] = dose: 400.0 mg/kg/injection, schedule: Q04DX002 (ip), vehicle: Klucel (hydroxypropylcellulose) (HPC)
[4] = dose: 100.0 mg/kg/injection, schedule: Q04DX003 (ip), vehicle: Klucel (hydroxypropylcellulose) (HPC)
[5] = dose: 100.0 mg/kg/injection, schedule: Q04DX003 (ip), vehicle: saline
[6] = dose: 200.0 mg/kg/injection, schedule: Q04DX003 (ip), vehicle: saline
[7] = dose: 400.0 mg/kg/injection, schedule: Q04DX003 (ip), vehicle: saline
[8] = dose: 100.0 mg/kg/injection, schedule: Q01DX001 (ip), vehicle: Klucel (hydroxypropylcellulose) (HPC)
[9] = dose: 200.0 mg/kg/injection, schedule: Q01DX001 (ip), vehicle: Klucel (hydroxypropylcellulose) (HPC)
[10] = dose: 100.0 mg/kg/injection, schedule: Q01DX001 (ip), vehicle: carboxymethylcellulose (CMC)
[11] = dose: 400.0 mg/kg/injection, schedule: Q01DX001 (ip), vehicle: carboxymethylcellulose (CMC)
[12] = dose: 100.0 mg/kg/injection, schedule: Q01DX009 (ip), vehicle: saline with Tween-80
[13] = dose: 200.0 mg/kg/injection, schedule: Q01DX009 (ip), vehicle: saline with Tween-80

CO[C@@H]1CCCCCC[C@H]1[Hg][Cl]
T/C (dose: 2.0 mg/kg/injection, schedule: Q01DX015 (ip), vehicle: carboxymethylcellulose (CMC)): 104 % of control | T/C (dose: 4.0 mg/kg/injection, schedule: Q01DX015 (ip), vehicle: carboxymethylcellulose (CMC)): 95 % of control | T/C (dose: 5.0 mg/kg/injection, schedule: Q01DX001 (ip), vehicle: carboxymethylcellulose (CMC)): 108 % of control | T/C (dose: 8.0 mg/kg/injection, schedule: Q01DX015 (ip), vehicle: carboxymethylcellulose (CMC)): 101 % of control | T/C (dose: 10.0 mg/kg/injection, schedule: Q01DX001 (ip), vehicle: carboxymethylcellulose (CMC)): 112 % of control | T/C (dose: 16.0 mg/kg/injection, schedule: Q01DX015 (ip), vehicle: carboxymethylcellulose (CMC)): 93 % of control | T/C (dose: 20.0 mg/kg/injection, schedule: Q01DX001 (ip), vehicle: carboxymethylcellulose (CMC)): 114 % of control | T/C (dose: 40.0 mg/kg/injection, schedule: Q01DX001 (ip), vehicle: carboxymethylcellulose (CMC)): 108 % of control

CC1=C(C)CC(c2ccccc2)C(C(=O)O)C1 (centres undefined)
T/C (dose: 176.0 mg/kg/injection, schedule: Q01DX001 (ip), vehicle: other): 100 % of control | T/C (dose: 266.0 mg/kg/injection, schedule: Q01DX001 (ip), vehicle: other): 100 % of control | T/C (dose: 400.0 mg/kg/injection, schedule: Q01DX001 (ip), vehicle: other): 101 % of control

CCn1cnc2c(SC(C)C)ncnc21
T/C (dose: 16.0 mg/kg/injection, schedule: Q01DX Z (ip), vehicle: carboxymethylcellulose (CMC)): 95 % of control | T/C (dose: 31.0 mg/kg/injection, schedule: Q01DX Z (ip), vehicle: carboxymethylcellulose (CMC)): 101 % of control | T/C (dose: 62.0 mg/kg/injection, schedule: Q01DX Z (ip), vehicle: carboxymethylcellulose (CMC)): 107 % of control

CNc1ccccc1C(=O)N/N=C/Cc1ccccc1
T/C [1]: 103 % of control | T/C [2]: 92 % of control | T/C [3]: 106 % of control

Cc1ccc(NC(=O)Nc2cc(C)on2)c([N+](=O)[O-])c1
T/C (dose: 25.0 mg/kg/injection, schedule: Q04DX003 (ip), vehicle: Klucel (hydroxypropylcellulose) (HPC)): 96 % of control | T/C (dose: 50.0 mg/kg/injection, schedule: Q04DX003 (ip), vehicle: Klucel (hydroxypropylcellulose) (HPC)): 96 % of control | T/C [4]: 100 % of control and 91 % of control

COc1ccccc1CCC=O
T/C (dose: 50.0 mg/kg/injection, schedule: Q01DX001 (ip), vehicle: saline): 96 % of control | T/C (dose: 100.0 mg/kg/injection, schedule: Q01DX001 (ip), vehicle: saline): 96 % of control | T/C (dose: 200.0 mg/kg/injection, schedule: Q01DX001 (ip), vehicle: saline): 102 % of control | T/C (dose: 400.0 mg/kg/injection, schedule: Q01DX001 (ip), vehicle: saline): 102 % of control

COC(=O)C(Cl)(Cl)C1(c2ccccc2)OCC(C)(C)N1C(=O)C(Cl)Cl (centres undefined)
T/C (dose: 100.0 mg/kg/injection, schedule: Q04DX003 (ip), vehicle: saline with Tween-80): 115 % of control | T/C (dose: 200.0 mg/kg/injection, schedule: Q04DX003 (ip), vehicle: saline with Tween-80): 94 % of control | T/C (dose: 400.0 mg/kg/injection, schedule: Q04DX003 (ip), vehicle: saline with Tween-80): 103 % of control

CC1(C)NC(=O)N(CN2CCN(CN3C(=O)NC(C)(C)C3=O)CC2)C1=O
T/C [5]: 108 % of control | T/C [6]: 108 % of control | T/C [7]: 113 % of control

COc1ccccc1-n1c(=O)c(N=Nc2ccc(Cl)cc2)c(O)n(-c2ccccc2Cl)c1=S
T/C (dose: 50.0 mg/kg/injection, schedule: Q01DX001 (ip), vehicle: Klucel (hydroxypropylcellulose) (HPC)): 94 % of control | T/C [8]: 101 % of control | T/C [9]: 92 % of control

CCOP(=O)(OCCBr)C(c1ccccc1)(c1ccccc1)c1ccccc1 (centres undefined)
T/C [1]: 89 % of control | T/C [2]: 92 % of control | T/C [3]: 92 % of control

CC(=NCc1ccccc1)C(C)(O)c1ccccc1 (centres undefined)
T/C (dose: 100.0 mg/kg/injection, schedule: Q01DX009 (ip), vehicle: other): 105 % of control | T/C (dose: 100.0 mg/kg/injection, schedule: Q04DX003 (ip), vehicle: other): 97 % of control | T/C [5]: 97 % of control | T/C (dose: 200.0 mg/kg/injection, schedule: Q01DX009 (ip), vehicle: other): 107 % of control | T/C (dose: 200.0 mg/kg/injection, schedule: Q04DX003 (ip), vehicle: other): 90 % of control | T/C [6]: 103 % of control | T/C (dose: 400.0 mg/kg/injection, schedule: Q01DX009 (ip), vehicle: other): 100 % of control | T/C (dose: 400.0 mg/kg/injection, schedule: Q04DX003 (ip), vehicle: other): 95 % of control | T/C [7]: 95 % of control

COC(=O)CCc1c(C)[nH]c(C(=O)OC(C)(C)C)c1C
T/C [8]: 97 % of control | T/C [4]: 93 % of control | T/C [9]: 101 % of control | T/C (dose: 200.0 mg/kg/injection, schedule: Q04DX003 (ip), vehicle: Klucel (hydroxypropylcellulose) (HPC)): 98 % of control | T/C (dose: 400.0 mg/kg/injection, schedule: Q01DX001 (ip), vehicle: Klucel (hydroxypropylcellulose) (HPC)): 93 % of control | T/C (dose: 400.0 mg/kg/injection, schedule: Q04DX003 (ip), vehicle: Klucel (hydroxypropylcellulose) (HPC)): 95 % of control

Cc1ccc(NC(=O)N(CCBr)N=O)cc1
T/C (dose: 26.0 mg/kg/injection, schedule: Q01DX015 (ip), vehicle: carboxymethylcellulose (CMC)): 117 % of control | T/C (dose: 39.0 mg/kg/injection, schedule: Q01DX015 (ip), vehicle: carboxymethylcellulose (CMC)): 101 % of control | T/C (dose: 58.0 mg/kg/injection, schedule: Q01DX015 (ip), vehicle: carboxymethylcellulose (CMC)): 101 % of control and 121 % of control | T/C (dose: 88.0 mg/kg/injection, schedule: Q01DX015 (ip), vehicle: carboxymethylcellulose (CMC)): 103 % of control | T/C [10]: 122 % of control | T/C (dose: 133.0 mg/kg/injection, schedule: Q01DX015 (ip), vehicle: carboxymethylcellulose (CMC)): 89 % of control | T/C (dose: 266.0 mg/kg/injection, schedule: Q01DX001 (ip), vehicle: carboxymethylcellulose (CMC)): 168 % of control | T/C [11]: 150 % of control and 153 % of control

COc1ccc(C2=Cc3ccc(OC(C)=O)cc3OC2)cc1
T/C (dose: 50.0 mg/kg/injection, schedule: Q01DX001 (sc), vehicle: steriod suspending solution): 101 % of control | T/C (dose: 100.0 mg/kg/injection, schedule: Q01DX001 (sc), vehicle: steriod suspending solution): 103 % of control | T/C (dose: 200.0 mg/kg/injection, schedule: Q01DX001 (sc), vehicle: steriod suspending solution): 101 % of control | T/C (dose: 400.0 mg/kg/injection, schedule: Q01DX001 (sc), vehicle: steriod suspending solution): 95 % of control

CC1c2ccccc2N(CCCN(C)C)c2ccccc21
T/C (dose: 4.0 mg/kg/injection, schedule: Q01DX015 (ip), vehicle: saline): 105 % of control | T/C (dose: 8.0 mg/kg/injection, schedule: Q01DX015 (ip), vehicle: saline): 103 % of control | T/C (dose: 16.0 mg/kg/injection, schedule: Q01DX015 (ip), vehicle: saline): 97 % of control | T/C (dose: 32.0 mg/kg/injection, schedule: Q01DX015 (ip), vehicle: saline): 97 % of control and 100 % of control | T/C (dose: 50.0 mg/kg/injection, schedule: Q04DX003 (ip), vehicle: saline): 108 % of control | T/C (dose: 64.0 mg/kg/injection, schedule: Q01DX015 (ip), vehicle: saline): 97 % of control | T/C (dose: 128.0 mg/kg/injection, schedule: Q01DX015 (ip), vehicle: saline): 92 % of control

c1cc2c(c3c1CCCC3)CCC1CCCCC21 (centres undefined)
T/C [10]: 103 % of control | T/C (dose: 200.0 mg/kg/injection, schedule: Q01DX001 (ip), vehicle: carboxymethylcellulose (CMC)): 95 % of control | T/C [11]: 97 % of control

COC(=O)/C=C(\C)Oc1cc(Cl)c(Cl)cc1Cl
T/C [12]: 94 % of control | T/C [13]: 97 % of control | T/C (dose: 400.0 mg/kg/injection, schedule: Q01DX009 (ip), vehicle: saline with Tween-80): 97 % of control

OCC12NC(=S)OC1C(O)C(O)CO2 (centres undefined)
T/C (dose: 50.0 mg/kg/injection, schedule: Q01DX009 (ip), vehicle: saline with Tween-80): 104 % of control | T/C [12]: 104 % of control | T/C [13]: 104 % of control

From PubChem BioAssay AID248 (DTP/NCI, 2004)
